Assays:
Format in all cases: in vivo
[1] = system: barnyardgrass (Echinochloa crus-galli); test: Test G Post-Emergence Protocol; details: Echinochloa crus-galli, post-emergence, 312 h, read-out: Barnyardgrass damage rating
Outline: (§1)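 Foliar application was made 8 days after sowing, using an aqueous spray of the active in acetone/water (50:50) with 0.5% Tween 20, at doses of 15.625, 62.5 or 250 g/ha. Injury was assessed 13 days later, where 100 meant the plant was fully damaged.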

corn (Zea mays) [2] = test: Test G Post-Emergence Protocol; details: Zea mays, post-emergence, 312 h, read-out: Corn damage rating
Outline: as §1

[3] = system: giant foxtail (Setaria faberi); test: Test G Post-Emergence Protocol; details: Setaria faberi, post-emergence, 312 h, read-out: Foxtail, Giant damage rating
Outline: as §1

[4] = system: velvetleaf (Abutilon theophrasti); test: Test G Post-Emergence Protocol; details: Abutilon theophrasti, post-emergence, 312 h, read-out: Velvetleaf damage rating
Outline: as §1

[5] = system: redroot pigweed (Amaranthus retroflexus); test: Test G Post-Emergence Protocol; details: Amaranthus retroflexus, post-emergence, 312 h, read-out: Pigweed, Redroot damage rating
Outline: as §1

[6] = system: ivy-leaved morning glory (Ipomoea hederacea); test: Test G Post-Emergence Protocol; details: Ipomoea, post-emergence, 312 h, read-out: Morningglory, Ivy-leaved damage rating
Outline: as §1

[7] = system: barnyardgrass (Echinochloa crus-galli); test: Test G Pre-Emergence Protocol; details: Echinochloa crus-galli, pre-emergence, 312 h, evaluated after 13 days
Outline: (§2)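 One day after sowing, pots are treated with a spray of test compound formulated in acetone/water 50:50 plus 0.5% Tween 20, giving 15.625, 62.5 or 250 g/ha. Evaluation on a 0–100 damage scale follows 13 days of glasshouse growth.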

corn (Zea mays) [8] = test: Test G Pre-Emergence Protocol; details: Zea mays, pre-emergence, 312 h, evaluated after 13 days
Outline: as §2

[9] = system: giant foxtail (Setaria faberi); test: Test G Pre-Emergence Protocol; details: Setaria faberi, pre-emergence, 312 h, evaluated after 13 days
Outline: as §2

[10] = system: velvetleaf (Abutilon theophrasti); test: Test G Pre-Emergence Protocol; details: Abutilon theophrasti, pre-emergence, 312 h, evaluated after 13 days
Outline: as §2

[11] = system: redroot pigweed (Amaranthus retroflexus); test: Test G Pre-Emergence Protocol; details: Amaranthus retroflexus, pre-emergence, 312 h, evaluated after 13 days
Outline: as §2

[12] = system: ivy-leaved morning glory (Ipomoea hederacea); test: Test G Pre-Emergence Protocol; details: Ipomoea, pre-emergence, 312 h, evaluated after 13 days
Outline: as §2

[13] = 15.625 g ai/ha, evaluated after 13 days (100=total damage to plant; 0=no damage to plant)
[14] = 62.5 g ai/ha, evaluated after 13 days, 100=total damage to plant, 0=no damage to plant
[15] = 250 g ai/ha, evaluated after 13 days, 100=total damage to plant, 0=no damage to plant

Q: With `Cc1cc(C#N)cc(C2CN(C)C(=O)C2C(=O)Nc2cccc(F)c2F)c1` (centres unmarked) [Compound 1691] as the molecule, how does the pest or weed control at 15.625 g/ha [1, 13] read?
A: 30%

Q: What about the pest or weed control at 62.5 g/ha [1, 14] of the same molecule?
A: 70%

Q: What about the pest or weed control at 250 g/ha [1, 15] of the same molecule?
A: 70%

Q: What about the plant injury at 15.625 g/ha (corn (Zea mays) [2]; [13]) of the same molecule?
A: 0%

Q: What about the plant injury at 62.5 g/ha (corn (Zea mays) [2]; [14]) of the same molecule?
A: 0%

Q: And the plant injury at 250 g/ha (corn (Zea mays) [2]; [15])?
A: 70%

Q: And the pest or weed control at 15.625 g/ha [3, 13]?
A: 60%

Q: And the pest or weed control at 62.5 g/ha [3, 14]?
A: 80%

Q: And the pest or weed control at 15.625 g/ha [4, 13]?
A: 0%

Q: And the pest or weed control at 62.5 g/ha [4, 14]?
A: 10%

Q: And the pest or weed control at 250 g/ha [4, 15]?
A: 20%

Q: And the pest or weed control at 15.625 g/ha [5, 13]?
A: 0%

Q: And the pest or weed control at 62.5 g/ha [5, 14]?
A: 0%

Q: What about the pest or weed control at 250 g/ha [5, 15] of the same molecule?
A: 0%

Q: What about the pest or weed control at 15.625 g/ha [6, 13] of the same molecule?
A: 0%

Q: And the pest or weed control at 62.5 g/ha [6, 14]?
A: 60%

Q: What about the pest or weed control at 250 g/ha [6, 15] of the same molecule?
A: 30%

Q: And the pest or weed control at 15.625 g/ha ([7]; 15.625 g ai/ha, read-out: Barnyardgrass damage rating (100=total damage to plant; 0=no damage to plant))?
A: 20%

Q: And the pest or weed control at 62.5 g/ha ([7]; 62.5 g ai/ha, 100=total damage to plant, 0=no damage to plant, read-out: Barnyardgrass damage rating)?
A: 70%

Q: What about the pest or weed control at 250 g/ha ([7]; 250 g ai/ha, read-out: Barnyardgrass damage rating (100=total damage to plant; 0=no damage to plant)) of the same molecule?
A: 80%

Q: What about the plant injury at 15.625 g/ha (corn (Zea mays) [8]; 15.625 g ai/ha, read-out: Corn damage rating (100=total damage to plant; 0=no damage to plant)) of the same molecule?
A: 0%

Q: What about the plant injury at 62.5 g/ha (corn (Zea mays) [8]; 62.5 g ai/ha, 100=total damage to plant, 0=no damage to plant, read-out: Corn damage rating) of the same molecule?
A: 20%

Q: And the plant injury at 250 g/ha (corn (Zea mays) [8]; 250 g ai/ha, read-out: Corn damage rating (100=total damage to plant; 0=no damage to plant))?
A: 80%

Q: And the pest or weed control at 15.625 g/ha ([9]; 15.625 g ai/ha, read-out: Foxtail, Giant damage rating (100=total damage to plant; 0=no damage to plant))?
A: 60%

Q: What about the pest or weed control at 62.5 g/ha ([9]; 62.5 g ai/ha, 100=total damage to plant, 0=no damage to plant, read-out: Foxtail, Giant damage rating) of the same molecule?
A: 90%

Q: And the pest or weed control at 250 g/ha ([9]; 250 g ai/ha, read-out: Foxtail, Giant damage rating (100=total damage to plant; 0=no damage to plant))?
A: 90%

Q: And the pest or weed control at 15.625 g/ha ([10]; 15.625 g ai/ha, read-out: Velvetleaf damage rating (100=total damage to plant; 0=no damage to plant))?
A: 0%

Q: What about the pest or weed control at 62.5 g/ha ([10]; 62.5 g ai/ha, 100=total damage to plant, 0=no damage to plant, read-out: Velvetleaf damage rating) of the same molecule?
A: 40%

Q: And the pest or weed control at 250 g/ha ([10]; 250 g ai/ha, read-out: Velvetleaf damage rating (100=total damage to plant; 0=no damage to plant))?
A: 60%

Q: And the pest or weed control at 15.625 g/ha ([11]; 15.625 g ai/ha, read-out: Pigweed, Redroot damage rating (100=total damage to plant; 0=no damage to plant))?
A: 0%

Q: What about the pest or weed control at 62.5 g/ha ([11]; 62.5 g ai/ha, 100=total damage to plant, 0=no damage to plant, read-out: Pigweed, Redroot damage rating) of the same molecule?
A: 20%

Q: What about the pest or weed control at 250 g/ha ([11]; 250 g ai/ha, read-out: Pigweed, Redroot damage rating (100=total damage to plant; 0=no damage to plant)) of the same molecule?
A: 30%

Q: What about the pest or weed control at 15.625 g/ha ([12]; 15.625 g ai/ha, read-out: Morningglory, Ivy-leaved damage rating (100=total damage to plant; 0=no damage to plant)) of the same molecule?
A: 0%

Q: And the pest or weed control at 62.5 g/ha ([12]; 62.5 g ai/ha, 100=total damage to plant, 0=no damage to plant, read-out: Morningglory, Ivy-leaved damage rating)?
A: 20%

Q: What about the pest or weed control at 250 g/ha ([12]; 250 g ai/ha, read-out: Morningglory, Ivy-leaved damage rating (100=total damage to plant; 0=no damage to plant)) of the same molecule?
A: 50%
